Laboratory results from patent US9828351B2, “Enzyme interacting agents” (MONASH UNIVERSITY, priority 2014, dated 2017).

Assays:
[1] = target: T1, recombinant his tagged human SphK1 (Homo sapiens, UniProt Q9NYA1); experiment: SphK1 activity assay (32P-labelled S1P production); type: biochemical; details: 10 μM compound; % of activity compared to control (DMSO vehicle only)
T1 construct: His tag; made in house; host or cells: insect cells (baculovirus system)
Method: (§1) The SphK assays employed, measure SphK activity through the production of ^32P-labelled S1P following the addition of exogenous Sph and [γ^32P] ATP.
(§2) Activities of SphK1 and SphK2 were determined using identical assay conditions with the exception that SphK1 assays used 3 ng/assay recombinant his tagged human SphK1 (made in the lab in a baculovirus system using insect cells), while SphK2 assays used 30 ng/assay recombinant human SphK2 (purchased by Johnson and Johnson).
(§3) Compounds were dissolved in DMSO at 10 mM, the mixture was vortexed (and sonicated if necessary). Stock solutions were kept at 4° C. until used.
(§4) Aliquots were made containing 100 μM drug compound. These aliquots were then diluted in assay buffer: 100 mM tris/HCl pH 7.4, 100 mM NaCl, 1 mM sodium orthovanadate, 10 mM NaF to make up a 10 μM solution.
(§5) Recombinant enzyme was diluted in assay buffer (above) to make up a final concentration of 0.03 ng/μL (SphK1) or 0.33 ng/μL (SphK2).
(§6) 40 μL recombinant enzyme was added to an Eppendorf® Safe-Lock® microcentrifuge tube. This was followed by the addition of drug compound from prepared aliquots, before adding ATP, [γ^32P]ATP and Sph. Note: ATP stock is made up in 1M Tris pH 7.4 and 200 mM MgCl2. This allows ATP to complex with Mg and be available as a substrate.
(§7) The rest of the reaction mixture was then added to the enzyme sample (Table 1). All reactions were performed as triplicates.
(§8) Reaction mixture was prepared with sufficient volume to assay all of the required samples. To do this, each of the volumes shown was multiplied by n+1, where n is the number of samples to be assayed. Assay buffer used is made up of 100 mM tris/HCl pH 7.4, 100 mM NaCl, 1 mM sodium orthovanadate and 10 mM NaF.
(§9) The mixture was then incubated at 37° C. for 20 min (SphK1)/45 min (SphK2).
(§10) To the 100 μL assay mixture, add 270 μl of chloroform/methanol/conc. HCl (100:200:1).
(§11) 20 μL of 5 M KCl was then added to the assay mixture.
(§12) 70 μL of chloroform was added to create phase separation. The solution was vortexed to mix well.
(§13) The solution was then centrifuged for 5 min at 13,000×g to fully separate the phases.
(§14) The upper aqueous/methanol phase was separated by aspiration.
(§15) 50 μL of the remaining lower chloroform phase […] was applied onto the TLC plate by repeatedly spotting a few microliters of liquid (<5 mm diameter circle) between each sample spot with the pipette tip. The liquid was then allowed to absorb into the plate before drying with a stream of air.
(§16) The TLC plate was developed in a glass TLC developing tank with 1-butanol/ethanol/glacial acetic acid/H2O (8:2:1:2) until the mobile phase is within 1 cm of the top of the TLC plate.
(§17) The TLC plate was then exposed to a storage phosphor screen overnight. Storage phosphor screens work by capturing images produced by ionising radiation (e.g. ^32P). The phosphorimager stimulates the screen which uses lasers to convert the latent signal to light. Light is proportional to the amount of radioactivity in the sample. The image is then quantified using standard quantification software (ImageQuant™). Whatman paper with the assay mixture dilutions, was included to assist quantification of the phosphor signal.
(§18) Once the storage phosphor screen was read using the phosphorimager, S1P spots, which have an Rf of 0.7 with the mobile phase employed, were quantified.
(§19) The S1P spot intensity can be converted to the amount of phosphate transferred/min/mg protein.

recombinant human SphK2 = target: T2, recombinant human SphK2 (Homo sapiens, UniProt Q9NRA0); experiment: SphK2 activity assay (32P-labelled S1P production); type: biochemical; details: 10 μM compound, % of activity compared to control (DMSO vehicle only)
T2 construct: purchased Johnson and Johnson
T2 sequence (Q9NRA0 1-654): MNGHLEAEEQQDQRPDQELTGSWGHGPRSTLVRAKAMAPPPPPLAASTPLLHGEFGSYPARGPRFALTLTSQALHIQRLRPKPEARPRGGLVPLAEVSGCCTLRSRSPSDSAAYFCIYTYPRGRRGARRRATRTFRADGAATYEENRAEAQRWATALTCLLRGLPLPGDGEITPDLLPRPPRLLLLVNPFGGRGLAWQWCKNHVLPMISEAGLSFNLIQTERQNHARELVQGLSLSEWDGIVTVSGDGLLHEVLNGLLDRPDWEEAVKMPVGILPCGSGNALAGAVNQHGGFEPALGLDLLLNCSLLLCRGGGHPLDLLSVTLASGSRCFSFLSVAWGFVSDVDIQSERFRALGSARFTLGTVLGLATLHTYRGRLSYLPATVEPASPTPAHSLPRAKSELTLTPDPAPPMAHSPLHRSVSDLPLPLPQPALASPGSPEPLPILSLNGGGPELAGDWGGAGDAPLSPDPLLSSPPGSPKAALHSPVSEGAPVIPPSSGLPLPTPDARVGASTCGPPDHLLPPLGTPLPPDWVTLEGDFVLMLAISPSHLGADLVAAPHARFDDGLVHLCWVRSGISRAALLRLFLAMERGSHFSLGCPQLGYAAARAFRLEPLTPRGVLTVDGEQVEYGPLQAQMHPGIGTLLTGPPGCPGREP
Method: as §1, §2, §3, §4, §5, §6, §7, §8, §9, §10, §11, §12, §13, §14, §15, §16, §17, §18, §19

[2] = target: T3, Dihydroceramide Desaturase-1 (Des1) (Homo sapiens, UniProt O15121); experiment: Dihydroceramide desaturase-1 (Des1) activity by HPLC in intact Jurkat cells labeled with DhCer-C6-NBD; type: cell-based; details: intact Jurkat cells; for IC50: read-out: Des 1 IC50
T3 construct: These modifications included the use of parental Jurkat cells; endogenous in cells; host or cells: parental Jurkat cells
T3 sequence (O15121 1-323): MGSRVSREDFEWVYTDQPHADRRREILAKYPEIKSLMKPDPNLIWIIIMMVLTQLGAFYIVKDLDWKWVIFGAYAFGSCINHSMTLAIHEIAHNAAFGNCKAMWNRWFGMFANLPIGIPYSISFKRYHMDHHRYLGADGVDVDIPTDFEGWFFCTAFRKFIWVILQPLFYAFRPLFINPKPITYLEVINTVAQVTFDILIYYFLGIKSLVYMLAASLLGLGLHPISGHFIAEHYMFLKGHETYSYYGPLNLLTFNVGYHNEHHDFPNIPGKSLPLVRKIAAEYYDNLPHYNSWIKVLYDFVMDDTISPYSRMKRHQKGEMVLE
Method: Measurement of Dihydroceramide Desaturase-1 (Des1) Activity:
These modifications included the use of parental Jurkat cells, 0.5% serum in the culture media, and cell harvesting via centrifugation at 500×g to maximise ceramide extraction. Extracted samples (50 ul) were analysed on a Waters HPLC coupled to a fluorescence detector using a 30 cm C18 reverse-phase column eluted with 1 ml/min 20% H2O and 80% acetonitrile, both with a 0.1% of trifluoroacetic acid.

[3] = system: PC3 prostate cancer cell lines; experiment: Anticancer activity in PC3 cell line, CellTitre AQueous One cell viability assay; type: cell-based; details: concentration required to inhibit cell proliferation by 50%, 72 hours
Method: Measurement of Anticancer Activity in PC3 Cell Line Assays
PC3 prostate cancer cell lines were cultured in DMEM (containing 10% fetal calf serum and penicillin-streptomycin).
Before treatment with drug compounds, cells were plated at 2,500 cells/well in 96 well plates and incubated at 37° C. with 5% CO2 in a humidified incubator for 24 hours prior. Cells were only plated in columns 3-10 and rows C—F to ensure uniform humidity and warmth across all wells. The remaining wells were filled with 100 μL of phosphate buffered saline.
Drug stock solutions (50 or 10 mM) were diluted×1000 in media to a final concentration of either 50 μM or 10 μM with a DMSO vehicle concentration of 0.1%.
Cell culture supernatants were aspirated and replaced with drug containing media. Drug treatments were performed in duplicate wells, while potential plate layout-specific variation in cell growth was accounted for by addition of a vehicle control (0.1% DMSO).
Cells were then incubated with drug compounds at 37° C. with 5% CO2 in a humidified incubator for 72 hours prior to assay.
Media was diluted with CellTitre AQueous One Solution (Promega, Australia; Cat # G3580) according to manufacturer's instructions to produce a final concentration of 317 μg/mL.
Cell culture supernatants were then aspirated from wells and replaced with 100 μL of CellTitre solution. Triplicate cell-free control wells containing only CellTitre solution were also included in each assay.
Cells were then incubated at 37° C. with 5% CO2 in a humidified incubator for 1 hour at which time absorbance was read at 490 nm with an EnVision microplate reader (Perkin Elmer, Australia).
When analysing data, background absorbance (taken from cell-free control wells) was subtracted from each reading. […] For each drug concentration the mean (±SEM) is calculated and graphed using GraphPad Prism (version 5). A sigmoidal curved is fitted to the data and used to calculate the IC50 of each compound.

[4] = target: T4, SphK1a in Flpln-SphK1a cells (Flp-In T-Rex HEK293) (Homo sapiens, UniProt Q9NYA1); experiment: SphK1 proteasomal degradation study (immunoblotting); type: cell-based; details: 10 μM test compound, 24 h
T4 construct: expressed in transfected cells; host or cells: Flp-In T-Rex HEK293 cells, doxycycline-induced
T4 sequence (Q9NYA1 whole entry): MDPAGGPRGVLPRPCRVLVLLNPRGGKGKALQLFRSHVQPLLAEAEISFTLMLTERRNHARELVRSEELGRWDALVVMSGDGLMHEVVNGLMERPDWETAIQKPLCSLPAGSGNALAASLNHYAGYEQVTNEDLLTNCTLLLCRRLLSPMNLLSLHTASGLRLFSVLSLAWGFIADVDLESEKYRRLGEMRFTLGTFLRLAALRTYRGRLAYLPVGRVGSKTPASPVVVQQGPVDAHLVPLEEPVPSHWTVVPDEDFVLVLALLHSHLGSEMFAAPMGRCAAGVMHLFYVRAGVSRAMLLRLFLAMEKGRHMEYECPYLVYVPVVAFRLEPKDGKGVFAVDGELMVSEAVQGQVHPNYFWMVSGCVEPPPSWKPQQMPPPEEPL
Method: These studies were performed as previously described for the drug SKI-II (C. Loveridge et al. J. Biol. Chem. 2010, 285, 38891). […] After 24 h cells were treated with 10 μm test compound, 10 μm MG132, or both. DMSO was used as the vehicle control. After a further 24 h, cells were harvested, lysed, and subjected to SDS-PAGE and immunoblotting with anti-FLAG (Sigma), anti-ERK1/2 (Promega), or anti-a-tubulin (Abcam) antibodies.

MCF7 breast cancer cells = experiment: Anticancer activity in MCF7 cell lines, MTS assay; type: cell-based; details: Homo sapiens, concentration required to inhibit cell proliferation by 50%, 72 hrs, read-out: MCF-7 IC50
Method: Measurement of Anticancer Activity in MCF7 Cell Lines
MCF7 breast cancer cells were treated with the test compounds and incubated at 37° C., 5% CO2 in air for 72 hrs. The MTS assay was conducted with addition of prepared MTS solution followed by 2 hr incubation, an OD reading and the raw data recorded. The data was managed in tabular form, values adjusted for vehicle control, and the adjusted values graphed as a sigmoidal curve and the EC50 value calculated.

[5] = system: Neonatal cardiac fibroblasts (NCFs) collagen synthesis; experiment: Inhibition of NCF collagen synthesis by 3H-proline incorporation; type: cell-based
Method: Neonatal cardiac fibroblasts (NCFs) were isolated as previously reported (Lekawanvijit, S. Wang, B. H., Krum, H. Eur Heart J. 2010, 31(14), 1771-9). After isolation, NCF (passage 0) were placed into T75 cell culture flasks (BD Falcon, NSW, Australia) and maintained in high-glucose (25 mM) DMEM containing 5.33 mM KCl (Invitrogen, Mount Waverley, Vic, Australia) in the presence of 1% antibiotic/antimycotic (Invitrogen, Mount Waverley, Vic, Australia) and 10% fetal bovine serum (FBS) (JRH biosciences). Cells were incubated at 37° C. with 5% CO2 for overnight and then the media were changed. NCF confluence was checked microscopically and NCF were sub-cultured. After removing media and 3× wash with warm 1×PBS, 2 ml of warm 0.05% trypsin-EDTA was added to each flask. Flasks were placed back into the 37° C. incubator for 1-2 minutes to allow cells to lift off the surface of the flasks. Trypsin was inactivated by adding 8 ml of DMEM containing 10% FBS. NCF (passage 1) were centrifuged for 6 minutes at 1300 rpm at RT. Cell pellets was washed 3× with DMEM+10% FBS and resuspended in DMEM+10% FBS. Cells were then placed into new flasks and incubated at 37° C. with 5% CO2 for 48 hours.
To seed NCF, steps from trypsinization to resuspension were repeated as above. NCF (passage 2) were counted with the ‘Countess’ cell counter. […]

T1 sequence (Q9NYA1 whole entry): as above

Row | IC50 [2] | IC50 ([3]; Homo sapiens, PC-3) | SphK1% activity at 10 μm [1] | SphK2% actvity at 10 μm (recombinant human SphK2) | IC50 [3] | Compound | further results
1 | 1 to 10 µM | 10 to 100 µM |  |  |  | O=S1NC(c2ccc(Nc3nnc(-c4ccc(Cl)cc4)o3)cc2)=NO1 (centres unmarked) [Example E-28, 5-(4-Chlorophenyl)-N-[4-(2-oxido-3H-1,2,3,5-oxathiadiazol-4-yl)phenyl]-1,3,4-oxadiazol-2-amine] | activity at 10 µM [1]: < 1%; remaining activity at 10 µM (recombinant human SphK2; read-out: SphK2% actvity at 10 μm): 5 to 20%
2 |  |  | 100-150% | 100-150% | 0.1 to 1 µM | 3-(4-((5-(4-Chlorophenyl)-1,3,4-oxadiazol-2-yl)amino)phenyl)-1,2,4-oxadiazol-5(4H)-one [Example E-16] | Des 1 IC50 [2]: inactive
3 | 1 to 10 µM |  |  |  |  | Oc1ccc(Nc2nnc(-c3ccccc3)o2)cc1 [Example E-25, 4-((5-Phenyl-1,3,4-oxadiazol-2-yl)amino)phenol] | melting point: 231 °C

The remaining lines, values behind:

Row | Compound | IC50 [2] | IC50 ([3]; Homo sapiens, PC-3) | SphK1% activity at 10 μm [1] | SphK2% actvity at 10 μm (recombinant human SphK2) | IC50 [3] | further results
4 | 3-(4-(5-(4-Chlorophenyl)-1,3,4-oxadiazol-2-yl)phenyl)-1,2,4-oxadiazol-5(4H)-one [Example E-15] |  |  | 50-80% | 80-100% | 0.1 to 1 µM | % SphK1a degradation at 10 μM [4]: 50%
5 | O=C(Nc1ccc(O)cc1)c1nc(-c2ccc(Cl)cc2)cs1 [Example E-5, 4-(4-Chlorophenyl)-N-(4-hydroxyphenyl)thiazole-2-carboxamide] |  | 10 to 100 µM |  |  |  | IC50 (MCF7 breast cancer cells): 10 to 100 µM
6 | (Z)-4-(5-(4-Chlorophenyl)-1,3,4-oxadiazol-2-yl)-N′-hydroxybenzimidamide [Example E-14] |  |  | 100-150% | 80-100% | > 100 µM | EC (effective concentration: concentration required to reduce collagen synthesis to a level equal to or below unstimulated control) [5]: 0.5 to 5 µM
